In US20130287688A1, “NOVEL COMPOSITIONS AND USES OF ANTI-HYPERTENSION AGENTS FOR CANCER THERAPY” (XTUIT PHARMACEUTICALS, INC., priority 2010, published 2013):
Values joined by “and” are separate entries in the source; they are usually repeats but may differ in a detail not shown here. Equal entries are not always repeated.

Experiments:
[1] = test system: L3.6 pl orthotopic pancreatic tumors; assay: Collagen I immunostaining of tumor sections; format: in vivo, SCID mice; conditions: 20 mg/kg/day, two weeks (FIG. 5B)
Method: (§1) Human soft tissue sarcoma (HSTS26T) and human melanoma (Mu89) tumors were grown subcutaneously in the legs and dorsal skin fold chamber of severe combined immunodeficient (SCID) mice (Leunig M, et al. (1992) Cancer Res 52:6553-6560). Human pancreatic adenocarcinoma cells (L3.6PL) were grown orthotopically in the pancreas of SCID mice. L3.6PL tumors were induced with a sub-capsular injection of one million cells in the tail of the pancreas. Tumor sizes were monitored in spontaneous FVB/N-Tg (MMTV-PyVT) 634MU1/J mice and tumors selected for treatment when they reached a size of 4 to 6 mm in diameter (Guy C T et al. (1992) Mol Cell Biol 12:954-961).
(§2) Cozaar (losartan potassium) tablets were ground using a mortar and pestle. The powder was then dissolved in water to obtain a concentration of 2.5 mg/ml. The solution was then filtered and stored in a sterile container.
(§3) Frozen sections were cut into 10 μm sections for immunohistochemistry and imaging. Collagen I was detected using the LF-67 antibody (1:100 dilution) with a previously described protocol (Znati C A, et al. (2003) Clin Cancer Res 9:5508-5513). TSP-1 was detected with a goat anti-human antibody (1:50 dilution), which cross-reacts with mice (sc-12312, Santa Cruz Biotechnology Inc., Santa Cruz, Calif.). For collagen and TSP-1 analysis, images at 20× magnification were taken randomly from each slide. The collagen and TSP-1 content was determined by measuring the number of pixels above a threshold value that was set based on the average intensity value of pixels from all slides under analysis. The background-signal intensity for both collagen I and thrombospondin-1 immunostaining was low and uniform.

[2] = test system: Mu89 tumors; assay: Collagen I immunostaining of tumor sections; format: in vivo, SCID mice; conditions: 20 mg/kg/day, two weeks (FIG. 5D)
Method: as §1, §2, §3

[3] = test system: HSTS26T tumors; assay: Collagen I immunostaining of tumor sections; format: in vivo, SCID mice
Method: as §1, §2, §3

[4] = test system: tumors; assay: Solid stress after a panel of ARBs; format: in vivo; conditions: 40 mg/kg losartan, 3.2 mg/kg candesartan, 32 mg/kg valsartan
Method: Solid stress levels in tumors after angiotensin inhibition using the ARBs losartan, candesartan, and valsartan are shown. Doses were chosen based on their relative doses in patients for hypertension indications (40 mg/kg losartan, 3.2 mg/kg candesartan, 32 mg/kg valsartan). […] Animal numbers n=6-7. Statistical tests were corrected for multiple comparisons using the Holm-Bonferroni method.
The mechanism responsible for the increase in tumor vessel perfusion by losartan was investigated. Desmoplasia, high stromal cell and matrix density, is a major contributor to the solid stress accumulation that compresses vessels (Stylianopoulos T, et al., Growth-induced mechanical stress in murine and human tumors: causes, consequences and remedies. under review. 2012). Since angiotensin inhibitors reduce matrix production in tumors (Diop-Frimpong B, et al., Proc Natl Acad Sci USA. 2011; 108(7): 2909-14), it was hypothesized that they decompress vessels and increase perfusion by decreasing solid stress. Collagen levels were used as a metric of matrix production as described in Diop-Frimpong et al., Proc Nall Acad Sci USA. […] Moreover, losartan decreased collagen I concentration, measured based on staining intensity, in E0771 and AK4.4 tumors (FIGS. 24B-24C). Of note, dense collagen seemed to colocalize with low-perfusion areas (FIG. 24C). Next, solid stress in these tumors was measured using recently established technique described in Stylianopoulos T, et al., Growth-induced mechanical stress in murine and human tumors: causes, consequences and remedies. under review. 2012. […]
Solid stress: Solid stress was measured using the tumor opening technique as described previously (Stylianopoulos T, et al., Growth-induced mechanical stress in murine and human tumors: causes, consequences and remedies. under review. 2012). […] Subsequently, each tumor was excised, washed with Hanks' Balanced Salt Solution (HBSS) and its three dimensions were measured. […] Afterwards, the opening resulting from the cut was measured at the middle of the cut at the surface of the tumor. […]

[5] = test system: E0771 breast tumors; assay: Vessel perfusion histology (lectin / CD31); format: in vivo, SCID mouse; conditions: 40 mg/kg
[6] = test system: 4T1 breast tumors; assay: Solid stress (tumor opening technique); design: species or system mice; conditions: mouse, in vivo
Excerpt: FIG. 25 is a bar graph showing that angiotensin inhibitors decrease stress in multiple tumor models. Solid stress levels in tumors after angiotensin inhibition using losartan are shown. […] Animal numbers n=10-11 (4T1 stress), n=4-8 (Pan-02 stress).
The mechanism responsible for the increase in tumor vessel perfusion by losartan was investigated. Desmoplasia, high stromal cell and matrix density, is a major contributor to the solid stress accumulation that compresses vessels (Stylianopoulos T, et al., Growth-induced mechanical stress in murine and human tumors: causes, consequences and remedies. under review. 2012). […] Moreover, losartan decreased collagen I concentration, measured based on staining intensity, in E0771 and AK4.4 tumors (FIGS. 24B-24C). […] Next, solid stress in these tumors was measured using recently established technique described in Stylianopoulos T, et al., Growth-induced mechanical stress in murine and human tumors: causes, consequences and remedies. under review. […]
Solid stress: Solid stress was measured using the tumor opening technique as described previously (Stylianopoulos T, et al., Growth-induced mechanical stress in murine and human tumors: causes, consequences and remedies. under review. 2012). […] Subsequently, each tumor was excised, washed with Hanks' Balanced Salt Solution (HBSS) and its three dimensions were measured. […]

[7] = Mean arterial blood pressure (MABP) in mice
Method: In the following Examples, 20 mg/kg/day dose was used (but it by no means limits the use of other doses in the methods described herein).

[8] = test system: FVB MMTV PyVT spontaneous mammary carcinoma; assay: Collagen I immunostaining of tumor sections; format: in vivo, mice; conditions: 20 mg/kg/day, two weeks (FIG. 5B)
Method: as §1
Cozaar (losartan potassium) tablets were ground using a mortar and pestle. The powder was then dissolved in water to obtain a concentration of 2.5 mg/ml. […]
as §3, with “For collagen and TSP-1 analysis, images at 20× magnification were taken randomly from each slide.” left out, “The background-signal intensity for both collagen I and thrombospondin-1 immunostaining was low and uniform.” left out

[9] = test system: Mu89 tumors; assay: In vivo proliferation (Ki67 staining); design: species or system mice; conditions: after losartan treatment
Excerpt: (§4) Tumors were resected and stained for Ki67 to assess proliferation rates. […] There was however a significant difference in proliferation between the two tumor types, the number of Ki67 positive cells was 3 fold higher in HSTS26T tumors.
(§5) Ki67 staining was done on paraffin sections 21 days after HSV injection. Slides were microwave processed with Target Retrieval Solution (DAKO, Carpinteria, Calif.) prior to primary antibody detection. The entire tumor section was imaged at 2× magnification and reconstituted as a mosaic. Twenty regions were randomly selected in each tumor. The fraction of Ki67 positive cells in each region was determined by manual count.

[10] = test system: HSTS26T tumors; assay: In vivo proliferation (Ki67 staining); design: species or system mice; conditions: after losartan treatment
Excerpt: as §4, §5

[11] = test system: HSTS26T tumors; assay: Protein levels in homogenized tumors (ELISA); format: in vivo, mice
Excerpt: Tumors were excised after two weeks of treatment, homogenized and analyzed for total and activated TGF-β1 levels by ELISA.

[12] = test system: AK4.4 tumors; assay: Solid stress (tumor opening technique); design: species or system mice; conditions: mouse, in vivo
[13] = 15 mg/kg/day in drinking water, two weeks

CCCCc1nc(Cl)c(CO)n1Cc1ccc(-c2ccccc2-c2nn[nH]n2)cc1 [losartan]
reduction in collagen I immunostaining [1]: 50%
reduction in collagen I immunostaining [2]: 20%
reduction in collagen I immunostaining ([3]; 20 mg/kg/day, dose response (FIG. 3), vs saline): 42%
reduction in collagen I immunostaining ([3]; 20 mg/kg/day, two weeks (FIG. 5D)): 44%
reduction in collagen I immunostaining ([3]; 60 mg/kg/day, dose response (FIG. 3), vs saline): 63% and 65%
solid stress [4]: reduce solid stress to a similar degree
CD31+ vessel density [5]: did not affect
vessel diameters [5]: increased
solid stress [6]: reduces solid stress
reduction in mean arterial blood pressure (MABP) ([7]; 20 mg/kg/day, after 2 weeks): 10 mm Hg
reduction in mean arterial blood pressure (MABP) ([7]; 60 mg/kg/day): 35 mm Hg
reduction in collagen I immunostaining [8]: 47%
positive Ki67 staining [9]: no statistically significant difference
positive Ki67 staining [10]: no statistically significant difference
reduction in TSP-1 [11, 13]: 3.5 fold
reduction in active TGF-β1 [11, 13]: 4 fold
reduction in collagen 1 [11, 13]: two fold reduction
total TGF-β1 levels ([11]; homogenized tumors): did not affect
solid stress [12]: reduces solid stress
